From patent US20170260185A1 (priority 2014, published 2017)
pIC50: −log10 of the molar value. Counter-ions that a name gives are not always drawn. Like-named read-outs stand apart in the source and are kept apart here.

What was measured:
[1] = target: T1, human dopamine transporter (DAT) (Homo sapiens, UniProt Q01959); test: Scintillation Proximity Assay (SPA) competition binding, [3H]WIN-35,428, hDAT-CHO membranes; conditions: for IC50: read-out: pIC50 DAT (converted); for pIC50: pIC50 DAT
T1 construct: expressed in transfected cells; host or cells: CHO (hDAT-CHO), membrane preparation
T1 sequence (Q01959 whole entry): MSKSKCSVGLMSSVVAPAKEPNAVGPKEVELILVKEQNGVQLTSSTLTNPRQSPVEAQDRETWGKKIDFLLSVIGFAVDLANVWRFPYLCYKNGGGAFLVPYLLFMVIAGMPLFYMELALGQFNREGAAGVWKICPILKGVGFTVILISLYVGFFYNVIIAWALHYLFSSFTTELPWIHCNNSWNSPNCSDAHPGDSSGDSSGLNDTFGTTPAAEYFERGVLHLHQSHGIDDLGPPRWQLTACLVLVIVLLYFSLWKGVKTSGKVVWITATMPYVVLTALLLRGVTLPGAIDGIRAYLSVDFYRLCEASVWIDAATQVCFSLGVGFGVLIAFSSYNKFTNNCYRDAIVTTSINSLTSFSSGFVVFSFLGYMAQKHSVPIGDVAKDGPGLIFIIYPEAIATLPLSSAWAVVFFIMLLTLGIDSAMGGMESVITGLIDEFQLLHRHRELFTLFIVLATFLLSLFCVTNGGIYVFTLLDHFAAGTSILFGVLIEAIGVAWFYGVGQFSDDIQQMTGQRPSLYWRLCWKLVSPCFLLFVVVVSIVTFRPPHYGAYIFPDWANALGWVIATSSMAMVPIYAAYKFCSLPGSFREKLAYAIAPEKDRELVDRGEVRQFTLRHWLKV

[2] = target: T2, human norepinephrine transporter (NET) (Homo sapiens, UniProt P23975); test: Scintillation Proximity Assay (SPA) competition binding, [3H]nisoxetine, hNET-CHO membranes
T2 construct: expressed in transfected cells; host or cells: CHO (hNET-CHO), membrane preparation
T2 sequence (P23975 whole entry): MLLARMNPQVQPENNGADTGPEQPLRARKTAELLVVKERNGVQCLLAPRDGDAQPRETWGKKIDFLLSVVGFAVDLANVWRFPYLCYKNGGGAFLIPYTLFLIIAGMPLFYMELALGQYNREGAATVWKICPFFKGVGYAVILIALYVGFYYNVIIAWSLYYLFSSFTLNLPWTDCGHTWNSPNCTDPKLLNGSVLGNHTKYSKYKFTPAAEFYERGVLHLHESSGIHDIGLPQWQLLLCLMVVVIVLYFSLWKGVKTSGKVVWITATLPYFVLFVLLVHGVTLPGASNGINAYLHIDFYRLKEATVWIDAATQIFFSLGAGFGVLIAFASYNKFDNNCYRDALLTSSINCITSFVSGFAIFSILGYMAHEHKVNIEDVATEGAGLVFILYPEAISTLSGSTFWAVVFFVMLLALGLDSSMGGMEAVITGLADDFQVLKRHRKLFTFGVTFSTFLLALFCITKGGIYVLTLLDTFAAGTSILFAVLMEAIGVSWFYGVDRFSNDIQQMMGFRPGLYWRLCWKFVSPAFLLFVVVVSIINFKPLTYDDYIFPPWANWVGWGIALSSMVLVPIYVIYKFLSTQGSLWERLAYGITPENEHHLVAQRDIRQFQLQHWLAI

[3] = target: T3, human serotonin transporter (SERT) (Homo sapiens, UniProt P31645); test: Scintillation Proximity Assay (SPA) competition binding, [3H]citalopram, hSERT-CHO membranes
T3 construct: expressed in transfected cells; host or cells: CHO (hSERT-CHO), membrane preparation
T3 sequence (P31645 whole entry): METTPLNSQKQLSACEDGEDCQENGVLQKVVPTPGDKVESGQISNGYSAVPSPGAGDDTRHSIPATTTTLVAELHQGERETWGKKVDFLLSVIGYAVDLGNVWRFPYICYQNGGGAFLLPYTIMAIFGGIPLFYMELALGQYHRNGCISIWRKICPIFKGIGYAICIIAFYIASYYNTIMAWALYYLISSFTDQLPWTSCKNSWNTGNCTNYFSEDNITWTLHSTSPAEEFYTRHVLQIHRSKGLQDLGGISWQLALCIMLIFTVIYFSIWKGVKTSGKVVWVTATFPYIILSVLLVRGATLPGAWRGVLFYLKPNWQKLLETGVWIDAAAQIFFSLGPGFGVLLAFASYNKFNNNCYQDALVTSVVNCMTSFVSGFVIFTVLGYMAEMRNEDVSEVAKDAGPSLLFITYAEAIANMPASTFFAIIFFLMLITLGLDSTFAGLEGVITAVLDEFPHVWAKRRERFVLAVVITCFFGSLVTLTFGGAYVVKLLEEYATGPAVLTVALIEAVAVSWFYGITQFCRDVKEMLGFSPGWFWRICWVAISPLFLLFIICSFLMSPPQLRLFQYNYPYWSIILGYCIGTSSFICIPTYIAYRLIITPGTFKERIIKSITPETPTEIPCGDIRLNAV

[4] = target: human ERG potassium channel (hERG) (Homo sapiens, UniProt Q12809); test: cell-based; conditions: for IC50: hERG tail current, HEK293 cells, read-out: pIC50 hERG (converted)
Chain of human ERG potassium channel (hERG) (Q12809 whole entry): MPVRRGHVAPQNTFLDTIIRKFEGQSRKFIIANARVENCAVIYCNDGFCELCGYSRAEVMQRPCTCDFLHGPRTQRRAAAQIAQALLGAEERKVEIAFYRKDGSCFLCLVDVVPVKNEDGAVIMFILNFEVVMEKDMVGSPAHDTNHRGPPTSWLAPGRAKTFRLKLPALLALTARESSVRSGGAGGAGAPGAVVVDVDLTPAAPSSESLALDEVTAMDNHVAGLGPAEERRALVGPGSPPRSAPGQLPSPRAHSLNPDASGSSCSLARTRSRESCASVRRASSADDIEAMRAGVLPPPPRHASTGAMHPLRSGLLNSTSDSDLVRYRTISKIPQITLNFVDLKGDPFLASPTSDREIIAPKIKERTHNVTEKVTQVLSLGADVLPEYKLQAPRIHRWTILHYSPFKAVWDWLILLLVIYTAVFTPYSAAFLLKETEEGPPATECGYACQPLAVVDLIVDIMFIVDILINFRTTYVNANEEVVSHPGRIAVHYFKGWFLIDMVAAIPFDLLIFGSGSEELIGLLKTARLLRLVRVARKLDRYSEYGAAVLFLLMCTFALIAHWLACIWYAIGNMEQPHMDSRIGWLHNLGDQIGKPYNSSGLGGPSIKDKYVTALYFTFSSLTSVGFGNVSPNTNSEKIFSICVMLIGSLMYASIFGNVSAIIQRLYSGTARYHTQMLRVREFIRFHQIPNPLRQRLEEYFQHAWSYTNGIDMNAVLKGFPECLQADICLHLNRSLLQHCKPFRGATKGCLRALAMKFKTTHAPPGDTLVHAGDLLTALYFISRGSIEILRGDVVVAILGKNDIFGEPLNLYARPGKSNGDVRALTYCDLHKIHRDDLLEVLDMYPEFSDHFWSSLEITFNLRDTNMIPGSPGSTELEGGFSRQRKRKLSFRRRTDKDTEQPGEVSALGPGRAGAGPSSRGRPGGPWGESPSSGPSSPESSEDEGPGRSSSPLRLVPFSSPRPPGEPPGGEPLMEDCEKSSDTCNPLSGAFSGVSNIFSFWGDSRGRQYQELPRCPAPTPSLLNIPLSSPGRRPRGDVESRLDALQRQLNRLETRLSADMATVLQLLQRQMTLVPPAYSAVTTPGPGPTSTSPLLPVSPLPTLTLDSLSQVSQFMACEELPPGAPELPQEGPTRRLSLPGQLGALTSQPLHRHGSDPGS
Procedure: Measure of the Effect on hERG Channel by Tail Current Recording Using In Vitro Rapid ICE™
The potency of the compounds of the invention in inhibiting human ERG potassium channel (hERG) tail current is assessed in a recombinant HEK293 cell line stably transfected with hERG cDNA using Rapid ICE™ (Rapid Ion Channel Electrophysiology) assay. Rapid ICE™ is an automated patch-clamp assay utilizing the PatchXpress 7000A system (Molecular Devices Corporation) or the QPatch HTX system (Sophion Bioscience A/S).
Briefly cells are cultivated for 24 to 72 hours before recordings in minimum essential medium supplemented with 10% FBS, 1% non-essential amino acids, 1% sodium pyruvate, 2 mM L-glutamine. The day of the experiment cells are detached with TrypLE and prepared to be loaded on the instrument. For PatchXpress cells are finally resuspended in 150 μl of Extracellular Buffer whereas for QPatch cells are resuspended in 7 ml Serum-Free Media containing 25 mM Hepes and Soybean trypsin inhibitor and immediately placed in the cell storage tank of the machine. The composition of the Extracellular Buffer is (mM): NaCl 137; KCl 4; CaCl2 1.8; MgCl2 1.0; D-glucose 10; N 2 hydroxyethylpiperazine-N′-2-ethanesulfonic acid (HEPES) 10; pH 7.4 with 1 M NaOH. The composition of the pipette solution is (mM): KCl 130; MgCl2 1.0; Ethylene glycol-bis(R-aminoethyl ether)-N,N,N′,N′-tetraacetic acid (EGTA) 5; MgATP 5; HEPES 10; pH 7.2 with 1 M KOH. The voltage protocol includes the following steps: step from −80 mV to −50 mV for 200 ms, +20 mV for 4.8 s, step to −50 mV for 5 s then step to the holding potential of −80 mV. Compounds of the invention are dissolved in DMSO and diluted in Extracellular Buffer to achieve final test concentrations (0.1, 1 and 10 μM) in 0.1% DMSO. The voltage protocol is run and recorded continuously during the experiment. The vehicle, corresponding to 0.1% DMSO in Extracellular Buffer, is then applied for 3 min followed by the test substance in triplicate. The standard combined exposure time is 5 min. The average of tail current amplitude values recorded from 4 sequential voltage pulses is used to calculate for each cell the effect of the test substance by calculating the residual current (% control) compared with vehicle pre-treatment. Data are reported as % inhibition for each concentration tested and IC50 values are estimated using DataXpress or QPatch software. At least two cells are tested, more if results diverge.

IC50 [1] [nM]	pIC50 [2]	pIC50 [3]	SMILES	IC50 [4] [nM]	pIC50 [1]	pIC50 [4]
145	5.49	5.13	COC1CCNCC12CCN(C(c1ccc(F)cc1)c1ccc(F)cc1)C2 (mixture of isomers) [Example 5, 2-[bis(4-fluorophenyl)methyl]-10-methoxy-2,7-diazaspiro[4.5]decane]	–	–	–
224	5.45	4.89	O[C@@H]1CCNC[C@]12CCN(C(c1ccc(F)cc1)c1ccc(F)cc1)C2 (single isomer, unassigned) [Example 11, 2-[bis(4-fluorophenyl)methyl]-2,7-diazaspiro[4.5]decan-10-ol]	–	–	–
302	5.10	4.77	O[C@@H]1CCNC[C@]12CCN(C(c1ccc(F)cc1)c1ccc(F)cc1)C2 (single isomer, unassigned) [Example 12, 2-[bis(4-fluorophenyl)methyl]-2,7-diazaspiro[4.5]decan-10-ol]	–	–	–
174	5.37	4.71	O[C@@H]1CCNC[C@@]12CCN(C(c1ccc(F)cc1)c1ccc(F)cc1)C2 (single isomer, unassigned) [Example 13, 2-[bis(4-fluorophenyl)methyl]-2,7-diazaspiro[4.5]decan-10-ol]	–	–	–
200	5.76	4.65	O[C@@H]1CCNC[C@@]12CCN(C(c1ccc(F)cc1)c1ccc(F)cc1)C2 (single isomer, unassigned) [Example 14, 2-[bis(4-fluorophenyl)methyl]-2,7-diazaspiro[4.5]decan-10-ol]	–	–	–
204	5.70	5.32	CO/N=C1\CCNC[C@]12CCN(C(c1ccc(F)cc1)c1ccc(F)cc1)C2 (single isomer, unassigned) [Example 15, (5S or 5R,10E)-2-[bis(4-fluorophenyl)methyl]-N-methoxy-2,7-diazaspiro[4.5]decan-10-imine]	–	–	–
309	5.35	5.47	Fc1ccc(C(c2ccc(F)cc2)N2CCC3(CNCCC34OCCO4)C2)cc1 (stereo not shown) [Example 6, 8-[bis(4-fluorophenyl)methyl]-1,4-dioxa-8,12-diazadispiro[4.0.4^6.4^5]tetradecane]	–	–	–
204	5.48	5.75	O=C1CCNCC12CCN(C(c1ccc(Cl)cc1)c1ccc(Cl)cc1)C2 (stereo not shown) [Example 19, 2-[bis(4-chlorophenyl)methyl]-2,7-diazaspiro[4.5]decan-10-one]	–	–	–
186	5.22	5.17	OC1CNCCC12CCN(C(c1ccc(F)cc1)c1ccc(F)cc1)C2 (stereo not shown) [Example 21, 2-[bis(4-fluorophenyl)methyl]-2,8-diazaspiro[4.5]decan-6-ol]	–	–	–
110	5.24	5.19	Fc1ccc(C(c2ccc(F)cc2)N2CCC3(CCCNC3)C2)cc1 (stereo not shown) [Example 22, 2-[bis(4-fluorophenyl)methyl]-2,7-diazaspiro[4.5]decane]	–	–	–
115	5.30	5.37	CN1CCCC2(CCN(C(c3ccc(F)cc3)c3ccc(F)cc3)C2)C1 (stereo not shown) [Example 23, 2-[bis(4-fluorophenyl)methyl]-7-methyl-2,7-diazaspiro[4.5]decane]	–	–	–
537	6.53	4.96	Fc1ccc(C(c2ccc(F)cc2)N2CCCC3(CCNC3)C2)cc1 (stereo not shown) [Example 24, 7-[bis(4-fluorophenyl)methyl]-2,7-diazaspiro[4.5]decane]	–	–	–
363	5.62	5.80	Fc1ccc(C(c2ccc(F)cc2)N2CCCC3(CCNCC3)C2)cc1 [Example 25, 2-[bis(4-fluorophenyl)methyl]-2,9-diazaspiro[5.5]undecane]	–	–	–
135	5.70	5.28	Fc1ccc(C(c2ccc(F)cc2)N2CCC3(CCCNC3)CC2)cc1 [Example 26, 9-[bis(4-fluorophenyl)methyl]-2,9-diazaspiro[5.5]undecane]	–	–	–
151	5.62	6.04	Clc1ccc(C(c2ccc(Cl)cc2)N2CCC3(CNCCO3)C2)cc1 (stereo not shown) [Example 30, 2-[bis(4-chlorophenyl)methyl]-6-oxa-2,9-diazaspiro[4.5]decane]	–	–	–

The remaining lines, values behind:

SMILES	IC50 [1] [nM]	pIC50 [2]	pIC50 [3]	IC50 [4] [nM]	pIC50 [1]	pIC50 [4]
O=C1CCNC[C@@]12CCN(C(c1ccc(F)cc1)c1ccc(F)cc1)C2 (single isomer, unassigned) [Example 7, (5R or 5S)-2-[bis(4-fluorophenyl)methyl]-2,7-diazaspiro[4.5]decan-10-one]	162	5.67	4.85	–	–	–
O=C1CCNC[C@]12CCN(C(c1ccc(F)cc1)c1ccc(F)cc1)C2 (single isomer, unassigned) [Example 8, (5S or 5R)-2-[bis(4-fluorophenyl)methyl]-2,7-diazaspiro[4.5]decan-10-one]	132	5.86	5.13	–	–	–
O=C1CCNC[C@@]12CCN(C(c1ccc(F)cc1)c1ccc(F)cc1)C2 (single isomer, unassigned) [Example 9, (5R or 5S)-2-[bis(4-fluorophenyl)methyl]-2,7-diazaspiro[4.5]decan-10-one dihydrochloride salt]	263	5.62	4.97	5010	–	–
O=C1CCNC[C@]12CCN(C(c1ccc(F)cc1)c1ccc(F)cc1)C2 (single isomer, unassigned) [Example 10, (5S or 5R)-2-[bis(4-fluorophenyl)methyl]-2,7-diazaspiro[4.5]decan-10-one dihydrochloride salt]	148	5.19	4.81	5010	–	–
ON=C1CCNCC12CCN(C(c1ccc(F)cc1)c1ccc(F)cc1)C2 (single isomer, unassigned) [Example 16, N-[(5S or 5R,10E)-2-[bis(4-fluorophenyl)methyl]-2,7-diazaspiro[4.5]decan-10-ylidene]hydroxylamine]	–	5.20	5.18	–	7.31	5.60
Fc1ccc(C(c2ccc(F)cc2)N2CC[C@]3(CNCCC3(F)F)C2)cc1 (single isomer, unassigned) [Example 17, (5S or 5R)-2-[bis(4-fluorophenyl)methyl]-10,10-difluoro-2,7-diazaspiro[4.5]decane]	–	5.97	4.88	–	7.64	5.50
FC1=CCNC[C@]12CCN(C(c1ccc(F)cc1)c1ccc(F)cc1)C2 (single isomer, unassigned) [Example 18, (5S or 5R)-2-[bis(4-fluorophenyl)methyl]-10-fluoro-2,7-diazaspiro[4.5]dec-9-ene]	–	5.73	5.03	–	7.52	5.50
O=C1CCNCC12CCN(C(c1ccc(F)cc1)c1ccc(F)cc1)C2 (stereo not shown) [Example 1, 2-[bis(4-fluorophenyl)methyl]-2,7-diazaspiro[4.5]decan-10-one]	129	5.42	4.65	–	–	5.70
CN1CCC(=O)C2(CCN(C(c3ccc(F)cc3)c3ccc(F)cc3)C2)C1 (stereo not shown) [Example 2, 2-[bis(4-fluorophenyl)methyl]-7-methyl-2,7-diazaspiro[4.5]decan-10-one]	372	4.65	4.66	–	–	5.10
Fc1ccc(C(c2ccc(F)cc2)N2CCC3(CCNCC34OCCO4)C2)cc1 (stereo not shown) [Example 20, 8-[bis(4-fluorophenyl)methyl]-1,4-dioxa-8,13-diazadispiro[4.0.4^6.4^5]tetradecane]	–	5.70	5.68	–	7.54	–
Clc1ccc(C(c2ccc(Cl)cc2)N2CCC3(CCNCC3)C2)cc1 [Example 28, 2-[bis(4-chlorophenyl)methyl]-2,8-diazaspiro[4.5]decane]	316	5.91	6.17	–	–	–
Fc1ccc(C(c2ccc(F)cc2)N2CCC3(CC2)CNCCS3)cc1 [Example 32, 9-[bis(4-fluorophenyl)methyl]-1-thia-4,9-diazaspiro[5.5]undecane]	–	5.61	5.63	–	7.23	–
